From ChEMBL document CHEMBL1128172, “Structure-activity relationships of cyclic pentapeptide endothelin A receptor antagonists” (J Med Chem, 1995)

target: T1, Endothelin-1 receptor (Sus scrofa, UniProt Q29010); experiment: The compound was tested for binding inhibitory activity against Endothelin A receptor from porcine aortic smooth muscle membranes.
T1 sequence (Q29010 whole entry): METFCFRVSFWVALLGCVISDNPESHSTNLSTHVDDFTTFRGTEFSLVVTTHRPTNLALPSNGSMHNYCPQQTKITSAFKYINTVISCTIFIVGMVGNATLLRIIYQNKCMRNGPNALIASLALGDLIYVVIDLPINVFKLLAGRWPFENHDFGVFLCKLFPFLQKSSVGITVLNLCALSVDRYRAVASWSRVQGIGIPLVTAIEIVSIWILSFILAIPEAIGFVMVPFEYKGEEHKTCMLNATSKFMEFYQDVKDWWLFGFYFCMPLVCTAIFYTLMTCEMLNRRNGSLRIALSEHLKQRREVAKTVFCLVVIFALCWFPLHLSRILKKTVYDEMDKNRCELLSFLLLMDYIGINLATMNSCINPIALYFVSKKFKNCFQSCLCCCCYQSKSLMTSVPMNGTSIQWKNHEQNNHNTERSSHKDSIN

Compared with CC(C)C[C@@H]1NC(=O)[C@@H](C)NC(=O)[C@H](CC(=O)O)NC(=O)[C@H](Cc2c[nH]c3ccccc23)NC(=O)[C@@H](CC(C)C)NC1=O, CC(C)C[C@@H]1NC(=O)[C@@H](C(C)C)NC(=O)[C@H](C)NC(=O)[C@@H](CC(=O)O)NC(=O)[C@@H](Cc2c[nH]c3ccccc23)NC1=O (single isomer, unassigned) is 4-fold lower in IC50 max: 440 nM for the first, 110 nM for the second.

Going from CC[C@H](C)[C@H]1NC(=O)[C@@H]2CCCN2C(=O)[C@@H](CC(=O)O)NC(=O)[C@@H](Cc2c[nH]c3ccccc23)NC(=O)[C@H](CC(C)C)NC1=O to CC[C@@H](C)[C@H]1NC(=O)[C@@H]2CCCN2C(=O)[C@@H](CC(=O)O)NC(=O)[C@@H](Cc2c[nH]c3ccccc23)NC(=O)[C@H](CC(C)C)NC1=O, the IC50 max rises from 12 nM to 64 nM (5.3-fold).

Going from CC(C)C[C@@H]1NC(=O)[C@@H]([C@H](C)O)NC(=O)[C@H](C)NC(=O)[C@@H](CC(=O)O)NC(=O)[C@@H](Cc2c[nH]c3ccccc23)NC1=O to CC(C)C[C@@H]1NC(=O)[C@@H](C(C)C)NC(=O)[C@H](CO)NC(=O)[C@@H](CC(=O)O)NC(=O)[C@@H](Cc2c[nH]c3ccccc23)NC1=O (single isomer, unassigned), the IC50 max falls from 4200 nM to 190 nM (22-fold).

CC(C)C[C@H]1NC(=O)[C@H](C(C)C)NC(=O)[C@H]2C[C@@H](O)CN2C(=O)[C@H](CC(=O)O)NC(=O)[C@H](Cc2c[nH]c3ccccc23)NC1=O and CC(C)C[C@@H]1NC(=O)[C@@H](C(C)C)NC(=O)[C@@H]2CCCCN2C(=O)[C@@H](CC(=O)O)NC(=O)[C@@H](Cc2c[nH]c3ccccc23)NC1=O are within 1.5-fold of each other in IC50 max: 18 nM for the first, 13 nM for the second.

Going from CC(C)C[C@@H]1NC(=O)[C@@H](C(C)C)NC(=O)CN(C)C(=O)[C@@H](CC(=O)O)NC(=O)[C@@H](Cc2c[nH]c3ccccc23)NC1=O (single isomer, unassigned) to CC(C)C[C@@H]1NC(=O)[C@@H](C(C)C)NC(=O)CNC(=O)[C@@H](CC(=O)O)NC(=O)[C@@H](Cc2c[nH]c3ccccc23)NC1=O (single isomer, unassigned), the IC50 max rises from 32 nM to 160 nM (5-fold).

CC(C)C[C@@H]1NC(=O)[C@@H](C(C)C)NC(=O)[C@H](CCCCN)NC(=O)[C@@H](CC(=O)O)NC(=O)[C@@H](Cc2c[nH]c3ccccc23)NC1=O (single isomer, unassigned) and CC(C)C[C@@H]1NC(=O)[C@@H](C(C)C)NC(=O)[C@H](CCCN)NC(=O)[C@@H](CC(=O)O)NC(=O)[C@@H](Cc2c[nH]c3ccccc23)NC1=O (single isomer, unassigned) are within 1.5-fold of each other in IC50 max: 200 nM for the first, 250 nM for the second.

CC(C)C[C@@H]1NC(=O)[C@@H](C(C)C)NC(=O)[C@H](Cc2ccccc2)NC(=O)[C@@H](CC(=O)O)NC(=O)[C@@H](Cc2c[nH]c3ccccc23)NC1=O (single isomer, unassigned) and CC(C)C[C@@H]1NC(=O)[C@@H](C(C)C)NC(=O)[C@H](CS)NC(=O)[C@@H](CC(=O)O)NC(=O)[C@@H](Cc2c[nH]c3ccccc23)NC1=O (single isomer, unassigned) are within 1.5-fold of each other in IC50 max: 210 nM for the first, 240 nM for the second.

Compared with CC(C)C[C@@H]1NC(=O)[C@@H](C(C)C)NC(=O)[C@H](C(C)C)NC(=O)[C@@H](CC(=O)O)NC(=O)[C@@H](Cc2c[nH]c3ccccc23)NC1=O (single isomer, unassigned), CSCC[C@@H]1NC(=O)[C@@H](CC(=O)O)NC(=O)[C@@H](Cc2c[nH]c3ccccc23)NC(=O)[C@H](CC(C)C)NC(=O)[C@@H](C(C)C)NC1=O (single isomer, unassigned) is 4.1-fold lower in IC50 max: 530 nM for the first, 130 nM for the second.

Compared with CC(C)[C@H]1NC(=O)[C@H](C)NC(=O)[C@@H](CC(=O)O)NC(=O)[C@@H](Cc2c[nH]c3ccccc23)NC(=O)[C@H](CC2CCCCC2)NC1=O (single isomer, unassigned), CC(C)C[C@@H]1NC(=O)[C@@H](C(C)C)NC(=O)[C@H](C)NC(=O)[C@@H](CCC(=O)O)NC(=O)[C@@H](Cc2c[nH]c3ccccc23)NC1=O (single isomer, unassigned) is 1.9-fold lower in IC50 max: 5600 nM for the first, 3000 nM for the second.

CC(C)C[C@@H]1NC(=O)[C@@H](C(C)C)NC(=O)[C@H](CC(=O)O)NC(=O)[C@@H](CC(=O)O)NC(=O)[C@@H](Cc2c[nH]c3ccccc23)NC1=O (single isomer, unassigned) and CC(C)C[C@@H]1NC(=O)[C@@H](C(C)C)NC(=O)[C@H](CCC(=O)O)NC(=O)[C@@H](CC(=O)O)NC(=O)[C@@H](Cc2c[nH]c3ccccc23)NC1=O (single isomer, unassigned) are within 1.5-fold of each other in IC50 max: 180 nM for the first, 140 nM for the second.

CC(C)C[C@@H]1NC(=O)[C@@H](C(C)C)NC(=O)[C@H](CCCN=C(N)N)NC(=O)[C@@H](CC(=O)O)NC(=O)[C@@H](Cc2c[nH]c3ccccc23)NC1=O (single isomer, unassigned) and CC(C)C[C@@H]1NC(=O)[C@@H](C(C)C)NC(=O)[C@H](CCC(N)=O)NC(=O)[C@@H](CC(=O)O)NC(=O)[C@@H](Cc2c[nH]c3ccccc23)NC1=O (single isomer, unassigned) are within 1.5-fold of each other in IC50 max: 150 nM for the first, 160 nM for the second.

Compared with CC(C)C[C@H]1C(=O)N[C@H](Cc2c[nH]c3ccccc23)C(=O)N[C@H](CC(=O)O)C(=O)N2CCC[C@H]2C(=O)N[C@H](C(C)C)C(=O)N1C (single isomer, unassigned), CC(C)C[C@@H]1NC(=O)[C@@H](C(C)C)NC(=O)[C@@H]2CCCN2C(=O)[C@@H](CCC(=O)O)NC(=O)[C@@H](Cc2c[nH]c3ccccc23)NC1=O (single isomer, unassigned) is 12-fold higher in IC50 max: 35 nM for the first, 410 nM for the second.

Compared with CC(C)C[C@@H]1NC(=O)CNC(=O)[C@H](CO)NC(=O)[C@@H](CC(=O)O)NC(=O)[C@@H](Cc2c[nH]c3ccccc23)NC1=O (single isomer, unassigned), CCC[C@H]1NC(=O)[C@@H]2CCCN2C(=O)[C@@H](CC(=O)O)NC(=O)[C@@H](Cc2c[nH]c3ccccc23)NC(=O)[C@H](CC(C)C)NC1=O (single isomer, unassigned) is 740-fold lower in IC50 max: 35000 nM for the first, 47 nM for the second.

Compared with CCCC[C@H]1NC(=O)[C@@H]2CCCN2C(=O)[C@@H](CC(=O)O)NC(=O)[C@@H](Cc2c[nH]c3ccccc23)NC(=O)[C@H](CC(C)C)NC1=O (single isomer, unassigned), CCC[C@@H]1NC(=O)[C@@H](C(C)C)NC(=O)[C@@H]2CCCN2C(=O)[C@@H](CC(=O)O)NC(=O)[C@@H](Cc2c[nH]c3ccccc23)NC1=O (single isomer, unassigned) is 3.6-fold lower in IC50 max: 120 nM for the first, 33 nM for the second.

CC(C)C[C@@H]1NC(=O)[C@@H](C(C)C)NC(=O)[C@H](Cc2cnc[nH]2)NC(=O)[C@@H](CC(=O)O)NC(=O)[C@@H](Cc2c[nH]c3ccccc23)NC1=O (single isomer, unassigned) and CC(C)C[C@@H]1NC(=O)[C@@H](C(C)C)NC(=O)C(C)(C)NC(=O)[C@@H](CC(=O)O)NC(=O)[C@@H](Cc2c[nH]c3ccccc23)NC1=O (single isomer, unassigned) are within 1.5-fold of each other in IC50 max: 240 nM for the first, 330 nM for the second.

Compared with CC(C)C[C@@H]1NC(=O)[C@@H](C(C)(C)C)NC(=O)[C@@H]2CCCN2C(=O)[C@@H](CC(=O)O)NC(=O)[C@@H](Cc2c[nH]c3ccccc23)NC1=O (single isomer, unassigned), CC(C)C[C@@H]1NC(=O)[C@@H](C(C)(C)S)NC(=O)[C@@H]2CCCN2C(=O)[C@@H](CC(=O)O)NC(=O)[C@@H](Cc2c[nH]c3ccccc23)NC1=O (single isomer, unassigned) is 3.3-fold higher in IC50 max: 15 nM for the first, 49 nM for the second.

CC(C)C[C@@H]1NC(=O)[C@@H](C2=CCC=CC2)NC(=O)[C@@H]2CCCN2C(=O)[C@@H](CC(=O)O)NC(=O)[C@@H](Cc2c[nH]c3ccccc23)NC1=O (single isomer, unassigned) and CC(C)C[C@@H]1NC(=O)[C@@H](c2ccccc2)NC(=O)[C@@H]2CCCN2C(=O)[C@@H](CC(=O)O)NC(=O)[C@@H](Cc2c[nH]c3ccccc23)NC1=O (single isomer, unassigned) are within 1.5-fold of each other in IC50 max: 19 nM for the first, 24 nM for the second.

First: COC(=O)C[C@H]1NC(=O)[C@@H](Cc2c[nH]c3ccccc23)NC(=O)[C@H](CC(C)C)NC(=O)[C@@H](C(C)C)NC(=O)[C@@H]2CCCN2C1=O (single isomer, unassigned)
Second: CC(C)C[C@@H]1NC(=O)[C@@H](C(C)C)NC(=O)[C@@H]2CCCN2C(=O)[C@@H](CCO)NC(=O)[C@@H](Cc2c[nH]c3ccccc23)NC1=O (single isomer, unassigned)
The IC50 max of the first is 4.4-fold lower: 390 nM for the first, 1700 nM for the second.

For CC(C)C[C@@H]1NC(=O)[C@@H](C(C)C)NC(=O)[C@@H]2CCCN2C(=O)[C@@H](CC(=O)O)NC(=O)[C@@H](Cc2cn(C=O)c3ccccc23)NC1=O (single isomer, unassigned), the IC50 max was 18 nM.

CC(C)C[C@@H]1NC(=O)[C@@H](C(C)C)NC(=O)[C@H](C)NC(=O)[C@H](CCC(=O)O)NC(=O)[C@H](Cc2c[nH]c3ccccc23)NC1=O (single isomer, unassigned) showed an IC50 max greater than 100000 nM.
CC(C)C[C@@H]1NC(=O)[C@@H](C(C)C)NC(=O)[C@H](C)NC(=O)[C@@H](CCC(=O)O)NC(=O)[C@H](Cc2c[nH]c3ccccc23)NC1=O (single isomer, unassigned) gave an IC50 max greater than 100000 nM.
Compound CC(C)C[C@@H]1NC(=O)[C@@H](C(C)C)NC(=O)[C@H](C)NC(=O)[C@H](CCC(=O)O)NC(=O)[C@@H](Cc2c[nH]c3ccccc23)NC1=O (single isomer, unassigned) has an IC50 max greater than 100000 nM.
In the case of CC(C)C[C@@H]1NC(=O)[C@@H](CC(=O)O)NC(=O)[C@H](CO)NC(=O)[C@@H](CC(=O)O)NC(=O)[C@@H](Cc2c[nH]c3ccccc23)NC1=O (single isomer, unassigned), the IC50 max is reported as greater than 100000 nM.
CC(C)C[C@@H]1NC(=O)[C@@H](C(C)C)NC(=O)[C@@H]2CCCN2C(=O)[C@@H](CC(=O)O)NC(=O)[C@@H](Cc2c[nH]cn2)NC1=O (single isomer, unassigned) gave an IC50 max greater than 100000 nM.
